# Experimental data published in patent publication USRE37781E1, “Substituted cyclic carbonyls and derivatives thereof useful as retroviral protease inhibitors” (DuPont Pharmaceuticals Company, priority 1991, dated 2002).
# Structures can show the parent of a compound that is named as a salt. Where two headings read alike, the source gives them in different places.
# Columns and labels:
# HIV-1 (RF) in MT-2 cells = assay: microbe, parasite or virus in culture; assay type: cell-based
# In short: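 HIV-1 laboratory strains (RF, MN, IIIB) grown in H9 cells in RPMI 1640 with 5% FCS; infections in MT-2 cells. Viral RNA quantified by hybridization with biotinylated gag/pol capture probes on streptavidin plates and alkaline phosphatase-conjugated reporter probes; BH10 gag-pol in vitro transcripts serve as RNA standards.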
# [1] = target: single-chain tethered dimer of HIV protease (Human immunodeficiency virus 1, UniProt P04585); assay: biochemical; assay type: biochemical; set-up: fused on or other part: A second copy of the same protease unit is joined to the first by a short peptide tether, giving one polypeptide
# [2] = Human immunodeficiency virus 1, MT2, 48 h, Table 2d, class symbols, read-out: IC90
# [3] = Human immunodeficiency virus 1, MT2, 48 h, Table 2d, HIV RNA assay, read-out: IC90
# [4] = Human immunodeficiency virus 1, MT2, HIV RNA assay, HIV-1 infected MT-2 cells, class symbols, read-out: IC90
# [5] = Table 2d, HIV protease inhibition, HPLC method, read-out: HPLC K1
# [6] = read-out: HPLC K1, Table 2d, class symbols
# [7] = Table 2u (second printing), HPLC method, read-out: K1 (HPLC)
# [8] = Table 2u, HPLC method, read-out: K1 (HPLC)
# [9] = read-out: HPLC K1, Table 2d, HIV protease inhibition, HPLC method
compound,measurement,setting,value
O=C1N(Cc2cccc(OCCO)c2)C(Cc2ccccc2)C(O)C(O)C(Cc2ccccc2)N1Cc1cccc(OCCO)c1 (centres unmarked) (hydrate or solvate) [10Y],melting point,,245 to 247 °C
CC(=NO)c1cccc(CN2C(=O)N(Cc3cccc(C(C)=NO)c3)C(Cc3ccccc3)C(O)C(O)C2Cc2ccccc2)c1 (centres unmarked) [Example 9Q],IC90,HIV-1 (RF) in MT-2 cells; [2],< 10 µg/mL
same,melting point,,200 to 202 °C
CC(C)CCCC(C)CCN1C(=O)N(CCC(C)CCCC(C)C)C(Cc2ccccc2)C(O)C(O)C1Cc1ccccc1 (centres unmarked) [Example 1P],melting point,,80 to 82 °C
Nc1cccc(CN2C(=O)N(CC3CC3)C(Cc3ccccc3)C(O)C(O)C2Cc2ccccc2)c1 (centres unmarked) (as salt: HCl) [15G],melting point,,108.9 °C
N#CN=C1N(Cc2cccc([N+](=O)[O-])c2)[C@H](Cc2ccccc2)[C@H](O)[C@@H](O)[C@@H](Cc2ccccc2)N1Cc1cccc([N+](=O)[O-])c1,melting point,,114 °C
NCC(=O)Nc1cccc(CN2C(=O)N(Cc3cccc(NC(=O)CN)c3)C(Cc3ccccc3)C(O)C(O)C2Cc2ccccc2)c1 (centres unmarked) (as salt: HCl) [15R],melting point,,233.7 °C
O=C1N(Cc2cccc(-c3cc[nH]n3)c2)C(Cc2ccccc2)C(O)C(O)C(Cc2ccccc2)N1Cc1cccc(-c2cc[nH]n2)c1 (centres unmarked) (as salt: HCl) [Example 15YM],melting point,,195 to 197 °C
CNc1cccc(CN2C(=O)N(Cc3ccc(CO)cc3)C(Cc3ccccc3)C(O)C(O)C2Cc2ccccc2)c1 (centres unmarked) (as salt: HCl) [15M],melting point,,107.6 °C
O=C1N(Cc2cccc(-c3ncc[nH]3)c2)C(Cc2ccccc2)C(O)C(O)C(Cc2ccccc2)N1Cc1cccc(-c2ncc[nH]2)c1 (centres unmarked) (as salt: hydrochloride) [Example 15BS],melting point,,191 to 194 °C
O=C1N(Cc2cccc(-c3cc[nH]n3)c2)C(Cc2ccccc2)C(O)C(O)C(Cc2ccccc2)N1Cc1cccc(-c2cc[nH]n2)c1 (centres unmarked) [Example 15YL],IC90,HIV-1 (RF) in MT-2 cells; [3],< 10 µg/mL
same,melting point,,208 to 210 °C
O=C1N(Cc2cccc(OCc3ccccc3)c2)C(Cc2ccccc2)C(O)C(O)C(Cc2ccccc2)N1Cc1cccc([N+](=O)[O-])c1 (centres unmarked) (hydrate or solvate) [11P],melting point,,173 to 176 °C
O=C1N(Cc2ccccn2)C(Cc2ccccc2)C(O)C(O)C(Cc2ccccc2)N1Cc1ccccn1 (centres unmarked) [Example 3M],IC90,HIV-1 (RF) in MT-2 cells; [4],10 to 100 µg/mL
same,melting point,,151 to 153 °C
O=C1N(Cc2cccc3ccccc23)C(Cc2ccccc2)C(O)C(O)C(Cc2ccccc2)N1Cc1cccc2ccccc12 (centres unmarked) [Example 3T],IC90,HIV-1 (RF) in MT-2 cells; [4],> 100 µg/mL
same,melting point,,231 to 233 °C
Cl.Cl.O=C(Nc1cccc(CN2C(=O)N(Cc3cccc(NC(=O)c4ccncc4)c3)C(Cc3ccccc3)C(O)C(O)C2Cc2ccccc2)c1)c1ccncc1 (centres unmarked) [Example 15AC],IC90,"HIV-1 (RF) in MT-2 cells; Table 2d, HIV RNA assay",+++ (+++=<10 μg/mL)
same,Ki,[1]; [5],< 10 nM
N#Cc1cccc(CN2C(=O)N(CCCCCO)C(Cc3ccccc3)C(O)C(O)C2Cc2ccccc2)c1 (centres unmarked) [Example 15VX],IC90,HIV-1 (RF) in MT-2 cells; [2],< 10 µg/mL
same,Ki,[1]; [6],< 10 nM
O=C1Nc2ccc(CN3C(=O)N(Cc4ccc5c(c4)C(=NO)C(=O)N5)C(Cc4ccccc4)C(O)C(O)C3Cc3ccccc3)cc2C1=NO (centres unmarked) [15DB],IC90,"HIV-1 (RF) in MT-2 cells; Table 2d, HIV RNA assay",+++ (+++=<10 μg/mL)
same,Ki,[1]; [5],< 10 nM
CC(=O)NCCCCCN1C(=O)N(CCCCCNC(C)=O)C(Cc2ccccc2)C(O)C(O)C1Cc1ccccc1 (centres unmarked) [15ET],IC90,"HIV-1 (RF) in MT-2 cells; Table 2d, HIV RNA assay",++/+ (The ++/+ is used in the cases where an IC90 was determined to be >50 μg/mL)
same,Ki,[1]; [5],10 to 1000 nM
O=C1N(CCCCCO)C(Cc2ccccc2)C(O)C(O)C(Cc2ccccc2)N1CCCCCO (centres unmarked) [Example 13H],IC90,HIV-1 (RF) in MT-2 cells; [2],< 10 µg/mL
same,Ki,[1]; [6],< 10 nM
COC(=O)c1cccc(CN2C(Cc3ccc(F)cc3)C(O)C(O)C(Cc3ccc(F)cc3)N(Cc3cccc(C(=O)OC)c3)S2(=O)=O)c1 (centres unmarked) [31A],IC90,HIV-1 (RF) in MT-2 cells; Table 2u,+++ (+++=<10 μg/mL)
same,IC90,HIV-1 (RF) in MT-2 cells; Table 2u (second printing),+++ (+++=<10 μg/mL)
same,Ki,[1]; [7],10 to 1000 nM
same,Ki,[1]; [8],10 to 1000 nM
O=S1(=O)N(Cc2ccc(CO)cc2)C(Cc2ccc(F)cc2)C(O)C(O)C(Cc2ccc(F)cc2)N1Cc1ccc(CO)cc1 (centres unmarked) [31D],IC90,HIV-1 (RF) in MT-2 cells; Table 2u,+++ (+++=<10 μg/mL)
same,IC90,HIV-1 (RF) in MT-2 cells; Table 2u (second printing),+++ (+++=<10 μg/mL)
same,Ki,[1]; [7],< 10 nM
same,Ki,[1]; [8],< 10 nM
CC(C)(C)OC(=O)NN=Cc1cccc(CN2C(=O)N(Cc3cccc(C=NNC(=O)OC(C)(C)C)c3)C(Cc3ccccc3)C(O)C(O)C2Cc2ccccc2)c1 (centres unmarked) [15AL],IC90,"HIV-1 (RF) in MT-2 cells; Table 2d, HIV RNA assay",+++ (+++=<10 μg/mL)
same,Ki,[1]; [5],10 to 1000 nM
O=S1(=O)N(CCCCCO)C(Cc2ccccc2)C(O)C(O)C(Cc2ccccc2)N1Cc1ccc(CO)cc1 (centres unmarked) [23AG],IC90,HIV-1 (RF) in MT-2 cells; Table 2m,+++ (+++=<10 μg/mL)
same,Ki,"[1]; Table 2m, read-out: HPLC Ki",< 10 nM
NC(=O)Cc1cccc(CN2C(=O)N(Cc3cccc(CC(N)=O)c3)C(Cc3ccccc3)C(O)C(O)C2Cc2ccccc2)c1 (centres unmarked) [15DV],IC90,HIV-1 (RF) in MT-2 cells; [3],< 10 µg/mL
same,Ki,[1]; [9],< 10 nM
COc1cccc(CC2C(O)C(O)C(Cc3cccc(OC)c3)N(Cc3ccccc3)C(=O)N2Cc2ccccc2)c1 (centres unmarked) [Example 20W],IC90,HIV-1 (RF) in MT-2 cells; Table 2i,+++ (+++=<10 μg/mL)
same,Ki,"[1]; Table 2i, read-out: HPLC Ki",< 10 nM
O=C1N(Cc2ccc3[nH]nnc3c2)C(Cc2ccccc2)C(O)C(O)C(Cc2ccccc2)N1Cc1ccc2[nH]nnc2c1 (centres unmarked) [15CT],IC90,"HIV-1 (RF) in MT-2 cells; Table 2d, HIV RNA assay",+++ (+++=<10 μg/mL)
same,Ki,[1]; [5],< 10 nM
NCCCCCCN1C(=O)N(Cc2ccc(CO)cc2)C(Cc2ccccc2)C(O)C(O)C1Cc1ccccc1 (centres unmarked) [Example 15WD],IC90,HIV-1 (RF) in MT-2 cells; [2],< 10 µg/mL
same,Ki,[1]; [6],10 to 1000 nM
O=C1N(CCCCCCO)C(Cc2ccccc2)C(O)C(O)C(Cc2ccccc2)N1CC1CC1 (centres unmarked) [Example 12E],IC90,HIV-1 (RF) in MT-2 cells; [2],< 10 µg/mL
same,Ki,[1]; [6],< 10 nM
Nc1ccc(CC2C(O)C(O)C(Cc3ccccc3N)N(CC3CC3)C(=O)N2CC2CC2)cc1 (centres unmarked) [Example 20E],IC90,"HIV-1 (RF) in MT-2 cells; Human immunodeficiency virus 1, MT2, Table 2i, read-out: IC90",< 10 µg/mL
same,Ki,"[1]; read-out: HPLC Ki, Table 2i",< 10 nM
CN(C)P1(=O)N(CC2CC2)[C@H](Cc2ccccc2)[C@H](O)[C@@H](O)[C@@H](Cc2ccccc2)N1CC1CC1 (some centres unmarked) [28G],IC90,HIV-1 (RF) in MT-2 cells; Table 2r,++ (++=10 to 100 μg/mL)
same,Ki,"[1]; Table 2r, read-out: Ki HPLC",> 1000 nM
N#Cc1cccc(CN2C(=O)N(Cc3cccnc3)C(Cc3ccccc3)C(O)C(O)C2Cc2ccccc2)c1 (centres unmarked) [Example 15AR],IC90,HIV-1 (RF) in MT-2 cells; [3],< 10 µg/mL
same,Ki,[1]; [9],< 10 nM
Cl.Cl.O=C(NCCCCCN1C(=O)N(CCCCCNC(=O)OCc2cccnc2)C(Cc2ccccc2)C(O)C(O)C1Cc1ccccc1)OCc1cccnc1 (centres unmarked) [15EU],IC90,"HIV-1 (RF) in MT-2 cells; Table 2d, HIV RNA assay",+++ (+++=<10 μg/mL)
same,Ki,[1]; [5],< 10 nM
CNC(=NO)c1cccc(CN2C(=O)N(Cc3cccc(C(=NO)NC)c3)C(Cc3ccccc3)C(O)C(O)C2Cc2ccccc2)c1 (centres unmarked) [15AZ],IC90,"HIV-1 (RF) in MT-2 cells; Table 2d, HIV RNA assay",+++ (+++=<10 μg/mL)
same,Ki,[1]; [5],< 10 nM
O=C1N(Cc2ccc3[nH]nnc3c2)C(Cc2ccccc2)C(O)C(O)C(Cc2ccccc2)N1CC1CC1 (centres unmarked) [15DP],IC90,"HIV-1 (RF) in MT-2 cells; Table 2d, HIV RNA assay",+++ (+++=<10 μg/mL)
same,Ki,[1]; [5],< 10 nM
CCCCN1C(=O)N(CCCC)C(Cc2ccccc2)C(O)C(O)C1Cc1ccccc1 (centres unmarked) [Example 13R],IC90,HIV-1 (RF) in MT-2 cells; [2],< 10 µg/mL
same,Ki,[1]; [6],10 to 1000 nM
Nc1n[nH]c2ccc(CN3C(=O)N(Cc4ccc5[nH]nc(N)c5c4)C(Cc4ccccc4)C(O)C(O)C3Cc3ccccc3)cc12 (centres unmarked) [15DF],IC90,"HIV-1 (RF) in MT-2 cells; Table 2d, HIV RNA assay",+++ (+++=<10 μg/mL)
same,Ki,[1]; [5],< 10 nM
NC(=NO)c1cccc(CN2C(=S)N(Cc3cccc(C(N)=NO)c3)[C@H](Cc3ccccc3)[C@H](O)[C@@H](O)[C@H]2Cc2ccccc2)c1 [Example 27L],IC90,HIV-1 (RF) in MT-2 cells; Table 2q,+++ (+++=<10 μg/mL)
same,Ki,"[1]; Table 2q, read-out: HPLC Ki",< 10 nM
CN(C)CCNC(=O)c1cccc(CN2C(Cc3ccccc3)C(O)C(O)C(Cc3ccccc3)N(Cc3cccc(C(=O)NCCN(C)C)c3)S2(=O)=O)c1 (centres unmarked) [23AA],IC90,HIV-1 (RF) in MT-2 cells; Table 2m,++ (++=10 to 100 μg/mL)
same,Ki,"[1]; Table 2m, read-out: HPLC Ki",10 to 1000 nM
O=C(NCCN1CCOCC1)c1cccc(CN2C(=O)N(CC3CC3)C(Cc3ccccc3)C(O)C(O)C2Cc2ccccc2)c1 (centres unmarked) [15YB],IC90,"HIV-1 (RF) in MT-2 cells; Table 2d, HIV RNA assay",+++ (+++=<10 μg/mL)
same,Ki,[1]; [5],< 10 nM
O=S1(=O)N(Cc2cccc(OCc3ccccc3)c2)C(Cc2ccccc2)C(O)C(O)C(Cc2ccccc2)N1Cc1cccc(OCc2ccccc2)c1 (centres unmarked) [Example 23C],IC90,"HIV-1 (RF) in MT-2 cells; Human immunodeficiency virus 1, MT2, Table 2m, read-out: IC90",10 to 100 µg/mL
same,Ki,"[1]; read-out: HPLC Ki, Table 2m",10 to 1000 nM
COC(=O)CCCCCN1C(=O)N(CCCCCC(=O)O)C(Cc2ccccc2)C(O)C(O)C1Cc1ccccc1 (centres unmarked) [Example 12I],IC90,"HIV-1 (RF) in MT-2 cells; Table 2d, class symbols",+ (+=>100 μg/mL)
same,Ki,"[1]; Table 2d, class symbols, read-out: HPLC K1",< 10 nM
O=S1(=O)N(CCCCCO)C(Cc2ccccc2)C(O)C(O)C(Cc2ccccc2)N1Cc1cccc(CO)c1 (centres unmarked) [23AH],IC90,HIV-1 (RF) in MT-2 cells; Table 2m,+++ (+++=<10 μg/mL)
same,Ki,"[1]; Table 2m, read-out: HPLC Ki",< 10 nM
